In one data set the target is T1, DNA topoisomerase 1 (Homo sapiens, UniProt P11387).
T1 sequence (P11387 whole entry): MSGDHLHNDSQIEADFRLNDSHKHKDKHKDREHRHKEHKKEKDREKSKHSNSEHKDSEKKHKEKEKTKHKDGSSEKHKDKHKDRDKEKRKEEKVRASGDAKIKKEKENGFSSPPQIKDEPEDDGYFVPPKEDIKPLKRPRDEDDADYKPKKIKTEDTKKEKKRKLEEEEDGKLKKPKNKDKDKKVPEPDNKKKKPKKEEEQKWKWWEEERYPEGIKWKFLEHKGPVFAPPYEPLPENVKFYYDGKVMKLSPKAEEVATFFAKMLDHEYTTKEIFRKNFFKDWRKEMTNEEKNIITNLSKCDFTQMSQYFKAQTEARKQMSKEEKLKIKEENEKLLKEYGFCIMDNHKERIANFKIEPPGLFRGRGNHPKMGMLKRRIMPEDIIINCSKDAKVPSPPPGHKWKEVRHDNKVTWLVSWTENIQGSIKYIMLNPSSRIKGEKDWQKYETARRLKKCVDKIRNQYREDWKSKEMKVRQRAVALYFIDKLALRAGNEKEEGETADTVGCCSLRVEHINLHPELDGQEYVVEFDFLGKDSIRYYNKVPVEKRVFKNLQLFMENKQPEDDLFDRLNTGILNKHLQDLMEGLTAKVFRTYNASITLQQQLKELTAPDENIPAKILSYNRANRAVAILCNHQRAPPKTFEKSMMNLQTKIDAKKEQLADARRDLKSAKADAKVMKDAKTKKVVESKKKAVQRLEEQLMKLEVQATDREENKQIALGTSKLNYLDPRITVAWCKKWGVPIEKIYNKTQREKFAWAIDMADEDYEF
As to the kind of experiment: Inhibition of wild type recombinant human Top1 expressed in baculovirus infected insect Sf9 cells assessed as decrease in supercoiled pBS(SK+) DNA isomer relaxation preincubated for 5 mins followed by pBS(SK+) DNA addition by agarose gel electrophoresis.

Data set [1] is described as follows: Inhibition of Leishmania donovani Top1 (large/ small subunits) expressed in Escherichia coli BL21 (DE3) pLysS cells assessed as decrease in supercoiled pBS(SK+) DNA isomer relaxation preincubated for 5 mins followed by pBS(SK+) DNA addition by agarose gel electrophoresis.
Data set [2] in a line: Toxicity in HEK293 cells assessed as inhibition of cell viability after 72 hrs by MTT assay. The format is cell-based. The settings on record: human. (In general: Tetrazolium dyes change colour on reduction, which living cells bring about.)
Data set [3] addresses T2, DNA topoisomerase 1 (Homo sapiens) (UniProt P11387).
T2 sequence (whole entry): T1 sequence (P11387 whole entry)
As to the kind of experiment: Inhibition of wild type recombinant human Top1 expressed in baculovirus infected insect Sf9 cells assessed as stabilization of Top1-cleavage complexes at 50 to 200 uM incubated for 30 mins by agarose gel electrophoresis.

Another data set concerns HCT-116. Briefly: Cytotoxicity against human HCT116 cells assessed as inhibition of cell viability after 72 hrs by MTT assay. In kind it is functional, cell-based. The settings on record: HCT-116, 72 h.
For data set [4], the target named is T2, DNA topoisomerase 1 (Homo sapiens). As to the kind of experiment: Inhibition of human Top1 in human MCF7 cells assessed as decrease in supercoiled pBS(SK+) DNA isomer relaxation at 5 to 200 uM preincubated for 5 mins followed by pBS(SK+) DNA addition by agarose gel electrophoresis. The format is cell-based.
Another data set relates to HeLa. As to the kind of experiment: Cytotoxicity against human HeLa cells assessed as inhibition of cell viability after 72 hrs by MTT assay. In kind it is functional, cell-based.
Data set [5] deals with T2, DNA topoisomerase 1 (Homo sapiens). As to the kind of experiment: Inhibition of wild type recombinant human Top1 expressed in baculovirus infected insect Sf9 cells assessed as decrease in supercoiled pBS(SK+) DNA isomer relaxation at 5 to 200 uM incubated simultaneously with enzyme and pBS(SK+) DNA for 30 mins by agarose gel electrophoresis.
Another data set has as its system Leishmania donovani. Briefly: Inhibition of Leishmania donovani Top1 (large/ small subunits) expressed in Escherichia coli BL21 (DE3) pLysS cells assessed as decrease in supercoiled pBS(SK+) DNA isomer relaxation at 5 to 200 uM incubated simultaneously with enzyme and pBS(SK+) DNA for 30 mins by agarose gel electrophoresis.
In a further data set the test system is MCF7. Briefly: Cytotoxicity against human MCF7 cells assessed as inhibition of cell viability after 72 hrs by MTT assay. In kind it is functional, cell-based. The settings on record: MCF7, 72 h.
The target in data set [6] is T2, DNA topoisomerase 1 (Homo sapiens). Briefly: Inhibition of human Top1 in human MCF7 cells assessed as decrease in supercoiled pBS(SK+) DNA isomer relaxation at 5 to 200 uM incubated simultaneously with enzyme and pBS(SK+) DNA for 30 mins by agarose gel electrophoresis. The format is cell-based.

Structures are written as SMILES. Calls of active or inactive are those of the source. The calls are words filed in the database; no cut-off is given here. A value given as a limit tells only on which side of the number the result lay.

As usually defined, the EC50 is the concentration giving half of the maximal effect. As usually defined, the IC50 is the point on the concentration scale where inhibition reaches its midpoint.

Consider `COc1ccc(-c2ccc(/C=C3/NC(=O)NC3=O)s2)cn1`, for which the concentration for a half-maximal effect (EC50) (at DNA topoisomerase 1; in data set [1]) was more than 100 µM throughout.

For `O=C1NC(=S)N/C1=C/c1ccc([N+](=O)[O-])cc1`, the EC50 (on DNA topoisomerase 1; in data set [1]) was more than 100 µM throughout.

For the compound `COc1ccc(/C=C2/NC(=S)NC2=O)cc1`, the 50% effective concentration (EC50) (on DNA topoisomerase 1; in [1]) was more than 100 µM in each case.

On to `COc1ccc(-c2csc(/C=C3/NC(=O)NC3=O)c2)cn1`, for which the concentration for a half-maximal effect (EC50) (on DNA topoisomerase 1; in data set [1]) was more than 100 µM in each case.

With `COc1ccc(/C=C2/NC(=S)NC2=O)cc1OC`, the EC50 (at DNA topoisomerase 1; in data set [1]) was more than 100 µM in each case.

For the compound `COc1ccc(/C=C2/NC(=S)NC2=O)cc1C`, the concentration giving a half-maximal response (EC50) (at DNA topoisomerase 1; in [1]) was more than 100 µM in each case.

Turning to `COc1ccc(/C=C2/NC(=O)NC2=O)cc1OC`, the concentration for a half-maximal effect (EC50) (at DNA topoisomerase 1; in data set [1]) was more than 100 µM each time.

Consider `Cc1ccc(/C=C2/NC(=S)NC2=O)cc1`, for which the concentration giving a half-maximal response (EC50) (at DNA topoisomerase 1; in data set [1]) was more than 100 µM in each case.

In the case of `COc1ccc(/C=C2/NC(=O)NC2=O)cc1C`, the concentration for a half-maximal effect (EC50) (at DNA topoisomerase 1; in data set [1]) was more than 100 µM each time.

With `O=C1NC(=S)N/C1=C/c1cc(Br)cs1`, the EC50 (at DNA topoisomerase 1; in data set [1]) was more than 100 µM each time.

Consider `COc1ccc(-c2ccc(/C=C3/NC(=S)NC3=O)s2)cn1`, for which the IC50 at 72 h in data set [2] is more than 50 µM. The inhibition result (in data set [3]; in [4]; in data set [5]; with Leishmania donovani; in data set [6]) was “Active” each time. The IC50 in the data set on HCT-116 was more than 50 µM; in the data set with HeLa, 1.1 µM; in the data set with MCF7, 11.4 µM. The values for the EC50 (on DNA topoisomerase 1; in data set [1]) were 10.1 µM and 65.2 µM, respectively.

In the case of `COc1cccc(/C=C2/NC(=S)NC2=O)c1`, the concentration giving a half-maximal response (EC50) (on DNA topoisomerase 1; in [1]) was more than 100 µM each time.

As to `O=C1NC(=S)N/C1=C/c1ccc(-c2cccnc2)s1`, the results for the EC50 (at DNA topoisomerase 1; in data set [1]) were 27.7 µM and 54.8 µM, respectively.

Consider `COc1ccc(-c2csc(/C=C3/NC(=S)NC3=O)c2)cn1`, for which the EC50 is 30.3 µM on DNA topoisomerase 1 and 63.1 µM in data set [1].

In the case of `Cc1cc(C)cc(/C=C2/NC(=O)NC2=O)c1`, the half-maximal effective concentration (EC50) (at DNA topoisomerase 1; in data set [1]) was more than 100 µM throughout.

As for `Cc1ccc(/C=C2/NC(=O)NC2=O)cc1`, the EC50 (at DNA topoisomerase 1; in [1]) was more than 100 µM each time.

For `COc1cc(/C=C2/NC(=O)NC2=O)cc(OC)c1OC`, the 50% effective concentration (EC50) (on DNA topoisomerase 1; in data set [1]) was more than 100 µM in each case.

As to `COc1cc(/C=C2/NC(=S)NC2=O)cc(OC)c1OC`, the EC50 is 93.2 µM at DNA topoisomerase 1 and more than 100 µM in data set [1].

Turning to `O=C1NC(=O)/C(=C\c2cc(Br)cs2)N1`, the EC50 (on DNA topoisomerase 1; in [1]) was more than 100 µM throughout.

As for `Cn1cc(/C=C2/NC(=S)NC2=O)c2ccccc21`, the values for the EC50 (at DNA topoisomerase 1; in [1]) were 48.9 µM and more than 100 µM, respectively.

Source of the values: ChEMBL document CHEMBL3621093, “Design, synthesis and evaluation of thiohydantoin derivatives as potent topoisomerase I (Top1) inhibitors with anticancer activity” (Eur J Med Chem, 2015).
